Laboratory results reported in patent US8809372B2, “Pyridine derivatives” (Endo Pharmaceuticals, Inc., priority 2011, dated 2014).

Columns and labels:
[1] = biological target: T1, rat CYP17 (rat testicular microsomes) (Rattus norvegicus, UniProt P11715); test: CYP17 inhibition assay in rat testicular microsomes; type: biochemical
T1 construct: Rat testis tissue was collected and disrupted with 30 strokes of a glass homogenizer; from tissue; host or cells: rat testis (microsomes)
T1 sequence (P11715 1-507): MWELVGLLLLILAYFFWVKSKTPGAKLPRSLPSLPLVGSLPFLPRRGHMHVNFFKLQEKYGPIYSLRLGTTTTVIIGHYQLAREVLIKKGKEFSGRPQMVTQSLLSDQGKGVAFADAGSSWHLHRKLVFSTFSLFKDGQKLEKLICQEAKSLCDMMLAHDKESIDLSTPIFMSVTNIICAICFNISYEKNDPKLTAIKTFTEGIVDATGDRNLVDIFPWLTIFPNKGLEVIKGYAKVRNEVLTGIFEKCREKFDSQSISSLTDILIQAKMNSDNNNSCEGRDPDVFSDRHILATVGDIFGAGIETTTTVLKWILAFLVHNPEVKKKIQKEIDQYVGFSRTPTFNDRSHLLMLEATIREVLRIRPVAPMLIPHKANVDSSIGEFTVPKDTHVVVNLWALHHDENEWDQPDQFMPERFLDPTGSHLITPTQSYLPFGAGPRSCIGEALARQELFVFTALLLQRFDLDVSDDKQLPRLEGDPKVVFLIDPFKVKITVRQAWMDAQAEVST
Method: CYP17 Inhibition Assay in Rat Testicular Microsomes (Rat CYP17) or Yeast Microsome Overexpressing Human CYP17
1. NADPH (Sigma): A working stock was prepared by adding 25 μL of 6.5 mM NADPH in each tube. The final concentration of NADPH used in the assay was 325 μM.
2. Potassium Phosphate Buffer: One molar (1M) solutions of K2HPO4 and KH2PO4 were prepared. Eight mL of the 1 M KH2PO4 and 1.98 mL of the 1 M K2HPO4 were combined and the pH was adjusted to 7.4.
3. ^3H3-17α-hydroxypregnenolone (American Radiolabeled Chemicals, Inc., stock 1 μCi/μL): A 1:1 dilution of ^3H3-17α-hydroxypregnenolone in ethanol was prepared by combining 100 μL ^3H3-17α-hydroxypregnenolone+100 μL ethanol for one complete 96 well plate. For the reaction, 2 μL of the diluted ^3H3-17α-hydroxypregnenolone was added in each tube, i.e., 1 μCi/reaction. 4. Microsome Isolation Buffer: The microsome isolation buffer was prepared by combining 250 mM Sucrose, 5 mM EDTA, 10 mM Tris HCl, 4 mM DTT, and adjusting to pH 7.4. 5. TEG Buffer: The TEG buffer was prepared by combining 50 mM Tris HCl, 1 mM EDTA, and 20% Glycerol. 6. Rat Testicular Microsomes: Rat testis tissue was collected and disrupted with 30 strokes of a glass homogenizer on ice with 250 μL of microsome isolation buffer, followed by centrifugation at 10,000 g for 10 minutes at 4° C. The supernatant was collected and centrifuged at 100,000 g for 45 minutes at 4° C. The pellet was dissolved in TEG Buffer and the protein was quantified. The homogenized microsome samples were then frozen at −80° C. • 7. Yeast Microsomes which overexpress the human CYP17 enzyme were obtained from Premas Biotech, India.
Potassium phosphate buffer (470 μL) was prepared as described above and was added to each well of a deep well plate. The test compound was diluted using a TECAN liquid handler and 5 μL of diluted compound was transferred to each well (96 deep well/1 mL). A solution (25 μL) of 6.5 mM NADPH was added (final concentration of 325 μM in the assay). ^3H3-17α-hydroxypregnenolone (2 μL of the working stock) was added to each tube. The plates were then pre-incubated for 15 minutes at 37° C. Following the pre-incubation, either 5 μL rat testicular microsomes (150-160 μg) or 5 μL of yeast microsomes expressing human CYP17 (1.7 pmol), was added. Incubation was at 37° C. for 60 minutes in the presence of oxygen. The plates were then placed in ice and chloroform (500 μL) was added, mixed well and incubated at 4° C. for 20 minutes. The plates were then centrifuged at 1000 rpm for 15 minutes at 4° C.
A portion (300 μL) of the aqueous solution was collected and mixed with a 5% aqueous suspension of activated charcoal (300 μL). The plates were then incubated at 4° C. for 30 minutes, after which the plates were centrifuged at 1000 rpm for 15 minutes at 4° C. From this, 125 μL of the aqueous solution was collected and plated into a 96 well plate. Microscint™ 40 [125 μL, Perkin-Elmer; containing a mixture of a polymer based on alkylphenolethoxylate (20-40%), diethanolamine-phosphoric acid ester ammonium salt (10-20%), sodium dioctyl sulphosuccinate (2.5-10%), triethyl phosphate (2.5-10%), 3,6-dimethyl-4-octyne-3,6-diol (≦2.5%), a polymer based on nonylphenolethoxylate (≦2.5%), diisopropyl naphthalene isomers (40-60%), 2,5-diphenyloxazole (≦2.5%), and 9,10-dimethylanthracene] was added and mixed well. After 30 minutes of incubation, the samples were analyzed with a MicroBeta® Trilux microplate liquid scintillation counter and luminometer (Perkin-Elmer).

[2] = biological target: T2, human CYP17 in H295R adrenocortical carcinoma cells (Homo sapiens, UniProt P05093); test: Cell-based human CYP17 inhibition assay, H295R cells; details: 16 hours, read-out: CYP17 (human H295R adrenal cells)
T2 construct: H295R Adrenocortical carcinoma cells [NCI-H295A, ATCC Number CRL-2128, American Type Culture Collection; host or cells: H295R adrenocortical carcinoma cells
T2 sequence (P05093 1-508): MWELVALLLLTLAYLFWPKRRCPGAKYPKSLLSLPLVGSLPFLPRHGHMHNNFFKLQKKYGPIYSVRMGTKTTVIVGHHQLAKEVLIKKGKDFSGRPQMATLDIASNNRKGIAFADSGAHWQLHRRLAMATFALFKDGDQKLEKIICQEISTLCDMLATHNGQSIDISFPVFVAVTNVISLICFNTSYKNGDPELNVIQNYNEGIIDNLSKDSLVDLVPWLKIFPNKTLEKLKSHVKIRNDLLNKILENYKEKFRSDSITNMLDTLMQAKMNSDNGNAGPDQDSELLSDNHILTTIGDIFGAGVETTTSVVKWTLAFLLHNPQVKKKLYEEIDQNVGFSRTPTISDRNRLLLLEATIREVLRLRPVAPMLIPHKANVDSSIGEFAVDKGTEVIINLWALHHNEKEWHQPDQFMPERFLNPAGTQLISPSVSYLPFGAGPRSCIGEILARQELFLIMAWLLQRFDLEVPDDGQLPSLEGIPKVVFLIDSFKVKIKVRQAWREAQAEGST
Method: Cell-Based Human CYP17 Inhibition Assay
1. H295R Adrenocortical Carcinoma Cells and Growth Media: The media for the H295R Adrenocortical carcinoma cells [NCI-H295A, ATCC Number CRL-2128, American Type Culture Collection, Manassas, Va., US] (500 mL) was a DMEM:F12 Mix 1:1 with 5% (2 mL) BD Nu Serum; 1% (5 mL) ITS+Premix [BD Biosciences] and 1% Penstrep. 2. LNCap-CYP17 Cells and Growth Media: Full length hCYP17a1 gene (NCBI Reference Sequence: NM_000102.3) was cloned in pcDNA3.1(+) vector between HindIII and XhoI site. The pcDNA3.1(+) vector contains the Neomycin resistance gene and was used for selection of stable cell line. The hCYP17a1 containing pcDNA3.1(+) was transfected into LNCap cells to create the LNCap-CYP17 cell line. The media for the LNCaP-CYP17 cells was RPMI 1640, 10% FBS, 1% PenStrep, Geneticin 400 μg/mL.
The H295R cells or LNCaP-hCYP17 cells were subcultured and 30,000 cells per well were seeded in a poly-d lysine plate and incubated overnight at 37° C. The next day the media was removed and 200 μL of fresh media with ^3H3-17α-hydroxy-pregnenolone (1:1000) was added. 50 μL of serially diluted compounds from a 5× plate (5 times the final desired concentration) was added. The working concentration range for active, new compounds started from a high concentration of 10 μM with 3-fold serial dilutions generating up to 10 concentrations. The serial dilution in the 100× plate (in DMSO) and the stamping of a 5× plate (in media) from the 100× plate were carried out using a TECAN liquid handling device.
The plates were incubated overnight (16 hours) at 37° C. After 16 hours, the media was removed (approximately 220 μL) and an equal amount of chloroform was added, mixed and incubated for 30 minutes at 4 degrees. The plate was centrifuged at 4000 rpm for 15 minutes at 4° C., following which the top aqueous layer was carefully removed and added into a new deep well plate. An equal volume of activated 5% charcoal was added, mixed and incubated for 30 minutes at 4° C. The plate was then centrifuged at 4000 rpm for 15 minutes at 4° C. and the top layer carefully separated, avoiding any charcoal contamination, and placed in a white, clear bottom plate (plate cat #3610, Corning Life Sciences). An equal volume of Microscint™ 40 was added and mixed well. Following the incubation for 30 minutes, readings for the radiotracer were taken using a Microbeta® trilux.

CCC(O)(c1ccncc1)c1ncc(-c2cn[nH]c2)o1 (stereo not shown) [Example 57, 1-(5-(1H-pyrazol-4-yl)oxazol-2-yl)-1-(pyridin-4-yl)propan-1-ol]
IC50 [1]: 50 to 200 nM | IC50 [2]: 201 to 10000 nM

CC(O)(c1ccncc1)c1cnc(-c2ccc(C(F)(F)F)cc2)s1 (stereo not shown) [Example 26, 1-(Pyridin-4-yl)-1-(2-(4-(trifluoromethyl)phenyl)thiazol-5-yl)ethanol]
IC50 [1]: < 50 nM | IC50 [2]: 50 to 200 nM

CC(O)(c1ccncc1)c1ccc(-c2ccc(F)cc2)o1 (stereo not shown) [Example 37, 1-(5-(4-fluorophenyl)furan-2-yl)-1-(pyridin-4-yl)ethanol]
IC50 [1]: 50 to 200 nM | IC50 [2]: 50 to 200 nM

OC(c1ccncc1)c1cnc(-c2ccc(F)cc2)s1 (stereo not shown) [Example 24, [2-(4-fluorophenyl)-1,3-thiazol-5-yl](pyridin-4-yl)methanol]
IC50 [1]: < 50 nM | IC50 [2]: 50 to 200 nM

CC(O)(c1ccncc1)c1cnc(-c2ccc(C(F)(F)F)c(Cl)c2)s1 (stereo not shown) [Example 41, 1-(2-(3-chloro-4-(trifluoromethyl)phenyl)thiazol-5-yl)-1-(pyridin-4-yl)ethanol]
IC50 [1]: < 50 nM | IC50 [2]: < 50 nM

CC(O)(c1ccncc1)c1cnc(-c2ccc(F)cc2)o1 (stereo not shown) [Example 23, 1-(2-(4-Fluorophenyl)oxazol-5-yl)-1-(pyridin-4-yl)ethanol]
IC50 [1]: < 50 nM | IC50 [2]: 201 to 10000 nM

CC(O)(c1ccncc1)c1cnc(-c2ccc(F)nc2)s1 (stereo not shown) [Example 22, 1-(2-(6-Fluoropyridin-3-yl)thiazol-5-yl)-1-(pyridin-4-yl)ethanol]
IC50 [1]: 201 to 10000 nM

CC(O)(c1ccncc1)c1cc(-c2ccc(F)cc2)sn1 (stereo not shown) [Example 63, 1-(5-(4-fluorophenyl)isothiazol-3-yl)-1-(pyridin-4-yl)ethanol]
IC50 [1]: < 50 nM | IC50 [2]: < 50 nM

CC(O)(c1ccncc1)c1cnc(-c2ccc(Cl)c(Cl)c2)s1 (stereo not shown) [Example 43, 1-(2-(3,4-dichlorophenyl)thiazol-5-yl)-1-(pyridin-4-yl)ethanol]
IC50 [1]: < 50 nM | IC50 [2]: < 50 nM

CC(O)(c1ccncc1)c1nnc(-c2ccc(F)cc2)o1 (stereo not shown) [Example 31, 1-(5-(4-Fluorophenyl)-1,3,4-oxadiazol-2-yl)-1-(pyridin-4-yl)ethanol]
IC50 [1]: 50 to 200 nM | IC50 [2]: 201 to 10000 nM

CC(O)(c1ccncc1)c1cnc(-c2ccc(F)c(F)c2)s1 (stereo not shown) [Example 44, 1-(2-(3,4-difluorophenyl)thiazol-5-yl)-1-(pyridin-4-yl)ethanol]
IC50 [1]: < 50 nM | IC50 [2]: < 50 nM

CC(O)(c1ccncc1)c1nc(-c2ccc(F)cc2)no1 (single isomer, unassigned; (-)) [Example 35, (−)-1-(3-(4-fluorophenyl)-1,2,4-oxadiazol-5-yl)-1-(pyridin-4-yl)ethanol]
IC50 [1]: < 50 nM | IC50 [2]: 201 to 10000 nM

COc1ccc(-c2ccc(C(C)(O)c3ccncc3)nc2)cc1F (stereo not shown) [Example 6, 1-(5-(3-fluoro-4-methoxyphenyl)-pyridin-2-yl)-1-(pyridin-4-yl)ethanol]
IC50 [1]: < 50 nM | IC50 [2]: 50 to 200 nM

CC(O)(c1ccncc1)c1ccc(-c2ccc(C#N)nc2)cn1 (stereo not shown) [Example 12, 6′-(1-Hydroxy-1-(pyridin-4-yl)ethyl)-[3,3′-bipyridine]-6-carbonitrile]
IC50 [1]: < 50 nM | IC50 [2]: 50 to 200 nM

CCC(O)(c1ccncc1)c1cnc(-c2cn[nH]c2)s1 (single isomer, unassigned; (+)) [Example 20, (+)-1-[2-(1H-pyrazol-4-yl)-1,3-thiazol-5-yl]-1-pyridin-4-ylpropan-1-ol]
IC50 [1]: 201 to 10000 nM

CCC(=O)OC(C)(c1ccncc1)c1cnc(-c2ccc(F)cc2)s1 (stereo not shown) [Example 66, 1-(2-(4-fluorophenyl)thiazol-5-yl)-1-(pyridin-4-yl)ethyl propionate]
IC50 [1]: < 50 nM

CCCC(=O)OC(C)(c1ccncc1)c1cnc(-c2ccc(F)cc2)s1 (stereo not shown) [Example 67, 1-(2-(4-fluorophenyl)thiazol-5-yl)-1-(pyridin-4-yl)ethyl butyrate]
IC50 [1]: < 50 nM

CC(=O)OC(C)(c1ccncc1)c1cnc(-c2ccc(F)cc2)s1 (stereo not shown) [Example 65, 1-(2-(4-Fluorophenyl)thiazol-5-yl)-1-(pyridin-4-yl)ethyl acetate]
IC50 [1]: < 50 nM
